Data on 17 molecules can be found in US20050187161A1, “Biopanning as an approach to study the pathogenesis of and produce novel treatment modalities for invasive Aspergillosis” (priority 2003, published 2005).

Ends that are not written are not given here.

In one assay the test system is A. fumigatus conidia. In words: BRASIL selection of CX7C phage display library on A. fumigatus conidia. The assay is classed as binding, Aspergillus fumigatus. As to conditions: after 4 selection rounds, clones with the motif / 40 random phage clones sequenced. Here is the method:
(§1) To identify potential host ligands that bind on the surface of A. fumigatus conidia and hyphae, a phage display library (CX7C) for A. fumigatus conidia and hyphae binding ligands using BRASIL is screened. The Aspergillus fumigatus clinical isolate AF293 (currently being used in the Aspergillus sequencing project, provided kindly by Dr. D. Denning, Manchester, UK.) is plated on YAG plates at 37° C. for 3 days and conidia are collected. Conidia (suspensions of 10^4 conidia/ml) are incubated at 37° C. for 16-20 hours in liquid YAG medium to allow for germination to hyphae. Conidia or hyphae, collected as described earlier, were then incubated with 10^9 transducing units (TU) of CX7C phage display library (Arap et al., 2002). A phage-conidia/hyphae suspension in an upper aqueous phase is centrifuged through a non-miscible organic phase with an intermediate specific density. Upon optimized centrifugation conditions conidia or hyphae entered the lower organic phase and pellet at the bottom of the tube, carrying with them only the specifically bound phage (FIG. 10). Dibutylphtalate:Cyclohexane ratio of the organic phase is preferably 6:1. Hyphae needed 100,000 g for pelleting as compared to 10,000 g for conidia (FIG. 10). The conidia/hyphae pellet is then recovered (after freezing, FIG. 10), and the phage is rescued by infection of E. coli K91kan bacteria (FIG. 1). Amplified phage was then used for subsequent rounds of selection (FIG. 10)
(§2) Infected E. coli K91Kan were incubated overnight in LB medium with kanamycin as selection marker (70 μg/ml), tetracycline that served as inducer of phage multiplication (40 μg/ml, the phage also contains the tetracycline resistance gene tetR), and voriconazole for suppression of conidial and hyphal growth (4 μg/ml). The next day, the phage was first separated from E. coli by centrifuigation, recovered using PEG/NaCl, and finally tittrated (to 109 TU units/μl) in order to be used in subsequent selection rounds.
(§3) After 4 rounds of selection for conidia 5 rounds for hyphae, peptide-inserts of 40 random phage clones (each for conidia and hyphae) were sequenced and analyzed for peptide sequences according to enrichment and by ClustalW sequence alignment. Selected motifs were then used to search non-redundant protein databanks.

The next assay concerns AF293 conidia. In words: Inhibition of WGHSRDE phage binding on AF293 conidia by synthetic peptide. Set-up: species or system Aspergillus fumigatus. As to conditions: FIG. 13; synthetic peptide 0.1, 1, 10 and 100 μM. Here is the method:
To validate that the CWGHSRDEC (SEQ ID NO:1) phage is mediating specific binding to AF293 conidia, the CWGHSRDEC (SEQ ID NO:) phage and the AF293 conidia are co-incubated in the presence of increasing concentrations of the CWGHSRDEC (SEQ ID NO: 1) peptide. A decrease in the amount of CWGHSRDEC (SEQ ID NO: 1) phage binding on the surface of AF293 conidia after adding the CWGHSRDEC (SEQ ID NO:1) peptide indicates the CWGHSRDEC (SEQ ID NO:1) peptide binds to the surface of AF293 conidia thus preventing the corresponding phage from binding on these sites.
Protocol: Increasing concentrations of the synthetic CWGHSRDEC (SEQ ID NO:1) peptide or a control scramble peptide (e.g., CLLSATPSC (SEQ ID NO:)) (0.1, 1, 10 and 100 μM) is incubated with 200 μl of a 5×10^8 AF293 conidia/ml solution in 1% BSA/PBS for 1 hour at room temperature and 10^8 TU of CWGHSRDEC (SEQ ID NO:1) phage is added and incubated for 2 hours at room temperature. The conidia/phage suspension is centrifuged over an organic phase for 10 min at 10,000 g. Pelleted conidia/phage is used for k91kan infection. The BRASIL method is followed as previously mentioned. A potential decrease in the phage binding on AF293 conidia as a function of the addition of the CWGHSRDEC (SEQ ID NO:1) peptide is graphed as shown in FIG. 13 (Giordano et al, 2001): […]

In assay [1] the test system is A. fumigatus hyphae. Briefly: BRASIL selection of CX7C phage display library on A. fumigatus hyphae. As to conditions: after 5 selection rounds, clones with the motif / 40 random phage clones sequenced. The assay is classed as binding, Aspergillus fumigatus. Here is the method: as §1, §2, §3
A further assay deals with Aspergillus. The note with it: Espinel-Ingroff, 1998; cited from earlier work.
In a further assay the test system is IA. The note with it: Abruzzo et al., 1997; cited from earlier work.
Assay [2] concerns A. fumigatus hyphae. The note with it: Bowman et al., 2002; cited from earlier work.

In the case of “SSGDRTA (listed as Aspergillus fumigatus)”, in the assay on A. fumigatus conidia, the Times identified was 2/40.
On the same count and under the same terms, the figure for “GGWGPGS (listed as Aspergillus fumigatus)” is 2/40; for “LLSATPS (listed as Aspergillus fumigatus)” it is 8/40.
For “WGHSRDE (not fully specified (N-terminus, C-terminus, bridges); listed as Aspergillus fumigatus) [synthetic peptide used as …]”, the “inhibition of WGHSRDE phage binding on AF293 conidia” value in the assay with AF293 conidia is “specific inhibition”. Also, in the assay with A. fumigatus conidia, the Times identified is given as 12/40.
“XCDSSVS (not fully specified; X: residue not identified in the source; listed as Aspergillus fumigatus)”: the Times identified in the assay with A. fumigatus hyphae [1] is recorded as 1/40.
For the molecule “IGRAPQM (listed as Aspergillus fumigatus)”, the Times identified in the assay with A. fumigatus conidia is recorded as 2/40.
Still for that read-out and setting: as for “SLVRGGT (listed as Aspergillus fumigatus)”, the figure is 2/40.
On to `CC[C@H](C)C[C@H](C)CCCCCCCCC(=O)N[C@H]1C[C@@H](O)[C@@H](NCCN)NC(=O)[C@@H]2[C@@H](O)CCN2C(=O)[C@H]([C@H](O)CCN)NC(=O)[C@H]([C@H](O)[C@@H](O)c2ccc(O)cc2)NC(=O)[C@@H]2C[C@@H](O)CN2C(=O)[C@H]([C@@H](C)O)NC1=O` [CAS, Caspofungin], for which, in the assay on Aspergillus, the “Aspergillus growth in vitro” value is listed as “growth reduction”. The “efficacy in animal models of IA” value in the assay with IA is given as “shown efficacy”. In addition, the “viability of growing A. fumigatus hyphae by DiBAC staining” value with A. fumigatus hyphae [2] is reported as “kills the apical tips of hyphae”.
For the molecule “VGVEYRT (listed as Aspergillus fumigatus)”, the Times identified with A. fumigatus hyphae [1] is 1/40.
On to “ELLRRGGS (ELRRGGS; listed as Aspergillus fumigatus)”, for which, in the assay with A. fumigatus conidia, the Times identified is 2/40.
Same read-out and setting: the figure for “GARASGS (listed as Aspergillus fumigatus)” is 4/40.
Regarding “VVGSADG (listed as Aspergillus fumigatus)”, the Times identified in the assay with A. fumigatus hyphae [1] is reported as 1/40.
In the case of “DLTHVSA (listed as Aspergillus fumigatus)”, in the assay on A. fumigatus hyphae [1], the Times identified was 1/40.
The same measure, in the same setting: as for “GTSRWLR (listed as Aspergillus fumigatus)”, the figure is 1/40.
Regarding “ISTFARG (listed as Aspergillus fumigatus)”, in the assay with A. fumigatus hyphae [1], the Times identified is 1/40.
Still for that read-out and setting: the figure for “GGRLGPF (listed as Aspergillus fumigatus)” is 2/40.
Same read-out and setting: as for “NPGYWGN (listed as Aspergillus fumigatus)”, the figure is 1/40.
